Structures are written as SMILES.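 Five compound concentrations were applied to cells in 96-well plates for 48 hours; endpoints were derived by simple linear interpolation of the resulting dose-response curve. TGI denotes the concentration required for complete inhibition of growth.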

Among the test systems are OVCAR-5 ovarian; NCI-H460 lung; SK-MEL-5 melanoma; SW-620 colon; CAKI-1 renal; 786-0 renal; OVCAR-3 ovarian; ACHN renal; COLO 205 colon.
Holding throughout (assay): NCI-60 cell line screen, 48 h

Regarding `COc1cc2c(cc1O)CCN[C@]21CS[C@@H]2c3c(OC(C)=O)c(C)c4c(c3[C@H](COC1=O)N1[C@@H]2[C@H]2c3c(cc(C)c(OC)c3O)C[C@@H]([C@@H]1O)N2C)OCO4`, the TGI with OVCAR-5 ovarian stood at 1.19 µM; with NCI-H460 lung, 0.808 µM; in the assay with SK-MEL-5 melanoma it was 0.00433 µM; in the assay with SW-620 colon, 0.13 µM; in the assay with CAKI-1 renal, 1.36 µM; in the assay on 786-0 renal, 0.948 µM. In the assay with OVCAR-3 ovarian, the TGI stood at 0.0057 µM.

As for `O=C(CC(=O)C1CCOC1=O)C(=O)Nc1cccc(Cl)c1` (stereo not drawn), the TGI in the assay with OVCAR-5 ovarian, in the assay on NCI-H460 lung, in the assay with SK-MEL-5 melanoma, in the assay on ACHN renal, in the assay with SW-620 colon and in the assay with COLO 205 colon was greater than 100 µM throughout. In addition, the TGI with CAKI-1 renal, in the assay with 786-0 renal and with OVCAR-3 ovarian was greater than 100 µM in each case.

As to `CCOC(=O)NC(=O)c1cn(C(CC)COC(=O)NCCCCCCNC(=O)OCC(CC)n2cc(C(=O)NC(=O)OCC)c(=O)[nH]c2=O)c(=O)[nH]c1=O` (stereo not drawn), the TGI with NCI-H460 lung, in the assay with SK-MEL-5 melanoma, in the assay on ACHN renal, with SW-620 colon, in the assay with COLO 205 colon and in the assay with CAKI-1 renal was greater than 100 µM throughout. In addition, the TGI in the assay with 786-0 renal and in the assay with OVCAR-3 ovarian was greater than 100 µM in each case.

`O=[N+]([O-])c1cccc(C2=NOC(C3CCCCC3)C2)c1` (stereo not drawn): the TGI with OVCAR-5 ovarian, with NCI-H460 lung, in the assay on SK-MEL-5 melanoma, in the assay on ACHN renal, in the assay on SW-620 colon and in the assay with COLO 205 colon was greater than 100 µM each time. The TGI in the assay on 786-0 renal and in the assay with OVCAR-3 ovarian was greater than 100 µM throughout.

Take `NC(=O)C(=O)CC(=O)c1ccccc1NC1=CC(=O)C(=O)c2ccccc21`: the TGI was greater than 100 µM in the assay on OVCAR-5 ovarian; greater than 100 µM with NCI-H460 lung; greater than 55.1 µM with SK-MEL-5 melanoma; greater than 100 µM in the assay on ACHN renal; greater than 100 µM in the assay on SW-620 colon; greater than 100 µM in the assay with COLO 205 colon. Moreover, the TGI in the assay on CAKI-1 renal, with 786-0 renal and in the assay on OVCAR-3 ovarian was greater than 100 µM in each case.

Regarding `Nc1c(-c2ccccc2-c2c(N)[n+]([O-])c3ccccc3[n+]2[O-])[n+]([O-])c2ccccc2[n+]1[O-]`, the TGI in the assay on OVCAR-5 ovarian was greater than 100 µM; in the assay on NCI-H460 lung, 18.5 µM; with SK-MEL-5 melanoma it was 31 µM; with ACHN renal, greater than 100 µM; with SW-620 colon it was greater than 100 µM; in the assay with COLO 205 colon, 23.6 µM. Besides, the TGI in the assay on CAKI-1 renal, with 786-0 renal and with OVCAR-3 ovarian was greater than 100 µM throughout.

`O=C(N/C(=C\c1ccc([N+](=O)[O-])cc1)c1nc2ccccc2[nH]1)c1ccccc1`: the TGI in the assay on OVCAR-5 ovarian, with NCI-H460 lung, with SK-MEL-5 melanoma, in the assay with ACHN renal, in the assay with SW-620 colon and in the assay on COLO 205 colon was greater than 100 µM each time. Besides, in the assay with 786-0 renal, the TGI is greater than 100 µM.

Turning to `CC(C)CCC[C@@H](C)C1CCC2[C@@H]3CC=C4C[C@@H](C(=O)NCCN(C)C)CC[C@]4(C)C3CC[C@@]21C` (stereo partly drawn), the TGI in the assay with OVCAR-5 ovarian was greater than 100 µM; in the assay on NCI-H460 lung it was greater than 100 µM; in the assay on ACHN renal, greater than 100 µM; in the assay on SW-620 colon, greater than 100 µM; in the assay with COLO 205 colon, 38.3 µM; with CAKI-1 renal, greater than 100 µM. Further, the TGI with 786-0 renal is 43.2 µM; with OVCAR-3 ovarian it was greater than 100 µM.

In the case of `Cc1cc2c(c(C(N)=O)c1C)-c1ccccc1C2=O`, the TGI in the assay on OVCAR-5 ovarian, with NCI-H460 lung, in the assay on ACHN renal, in the assay on SW-620 colon, in the assay on COLO 205 colon and in the assay with 786-0 renal was greater than 100 µM throughout. The TGI in the assay on OVCAR-3 ovarian is greater than 100 µM.

For `CC1=C(C#N)C(=O)CC(c2ccc(Cl)cc2)N(C)N1` (stereo not drawn), the TGI with OVCAR-5 ovarian, in the assay on NCI-H460 lung, with SK-MEL-5 melanoma, with ACHN renal, with SW-620 colon and with CAKI-1 renal was greater than 100 µM throughout. Further, in the assay with 786-0 renal, the TGI was greater than 100 µM.

In the case of `CC(C)=C1CCC(CN(C)C)C1=O` (stereo not drawn), the TGI was greater than 100 µM in the assay with OVCAR-5 ovarian; greater than 100 µM in the assay with NCI-H460 lung; 32.9 µM in the assay on SK-MEL-5 melanoma; 31.5 µM in the assay on ACHN renal; 20.2 µM in the assay with SW-620 colon; 63.4 µM in the assay on COLO 205 colon. Also, the TGI in the assay with 786-0 renal amounted to 25.9 µM; with OVCAR-3 ovarian, 31.7 µM.

As for `CC(=O)N1CCN(c2ccc(OCC3COC(Cn4ccnc4)(c4ccc(Cl)cc4Cl)O3)cc2)CC1` (stereo not drawn), the TGI was greater than 100 µM in the assay with OVCAR-5 ovarian; greater than 100 µM in the assay with NCI-H460 lung; 24.9 µM with SK-MEL-5 melanoma; greater than 100 µM with ACHN renal; greater than 100 µM with SW-620 colon; 40.8 µM in the assay on COLO 205 colon. The TGI in the assay on CAKI-1 renal, with 786-0 renal and in the assay on OVCAR-3 ovarian was greater than 100 µM in each case.

On to `COC(=O)/C([Se]c1c(C)cc(C)cc1C)=C(/[Se]c1c(C)cc(C)cc1C)C(=O)OC`, for which the TGI in the assay with OVCAR-5 ovarian, with NCI-H460 lung, in the assay on SK-MEL-5 melanoma, in the assay with ACHN renal, in the assay on SW-620 colon and in the assay on COLO 205 colon was greater than 100 µM throughout. The TGI in the assay on CAKI-1 renal, in the assay on 786-0 renal and in the assay on OVCAR-3 ovarian was greater than 100 µM throughout.

For the compound `CCOCN1COCN(C)C1=O`, the TGI in the assay on OVCAR-5 ovarian, in the assay with NCI-H460 lung, in the assay with SK-MEL-5 melanoma, in the assay with ACHN renal, with SW-620 colon and in the assay with COLO 205 colon was greater than 100 µM in each case. Also, the TGI in the assay with CAKI-1 renal, in the assay with 786-0 renal and in the assay with OVCAR-3 ovarian was greater than 100 µM throughout.

As for `Nc1nc(-c2ccc(Cl)c([N+](=O)[O-])c2)cs1`, the TGI in the assay with OVCAR-5 ovarian, in the assay with NCI-H460 lung, with SK-MEL-5 melanoma, in the assay on ACHN renal, in the assay on SW-620 colon and with COLO 205 colon was greater than 100 µM in each case. Further, the TGI with CAKI-1 renal, in the assay on 786-0 renal and in the assay on OVCAR-3 ovarian was greater than 100 µM throughout.

Values taken from PubChem BioAssay (NCI).
